Test results taken from patent publication US8158621B2, “Methods of treating or preventing autoimmune diseases with 2,4-pyrimidinediamine compounds” (Rigel Pharmaceuticals, Inc., priority 2002, dated 2012).

system: Human Jurkat T-cells (clone N); assay: Jurkat T-cell activation (anti-TCR, CD69 upregulation); type: cell-based; settings: not given
Outline: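 Jurkat cells in RPMI + 5% FBS preincubated with compound 1 h at 37 °C, then stimulated with anti-TCR C305 at 500 ng/ml for 20 h. CD69 surface expression stained with anti-CD69-APC and read by flow cytometry; IC50 versus solvent-only control.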

`COCc1cc(=O)oc2cc(Nc3ncc(F)c(Nc4ccc5c(COC)cc(=O)oc5c4)n3)ccc12` [Compound R926620] and `CN(C)C(=O)c1cc2cc(Nc3ncc(F)c(Nc4cccc(O)c4)n3)ccc2o1` [Compound R926718] cannot be ordered by IC50: > 10 µM for the first, 12.4 µM for the second.

`CCOC(=O)COc1ccc(Nc2ncc(F)c(Nc3ccc(OCC(=O)OCC)c(Cl)c3)n2)cc1Cl` [Compound R926676] and `CNC(=O)COc1cc(Nc2ncc(F)c(Nc3ccc(C)c(OCC(=O)NC)c3)n2)ccc1C` [Compound R926760] cannot be ordered by IC50: > 10 µM for the first, 10.2 µM for the second.

First: COCOc1ccc(Nc2nc(Nc3cccc(O)c3)ncc2F)c(F)c1 [Compound R926680]
Second: CCOC(=O)COc1cccc(Nc2nc(Nc3cccc(O)c3)ncc2F)c1 [Compound R926775]
The IC50 of the first is lower: 5.7 µM for the first, > 10 µM for the second.

First: Oc1cccc(Nc2nc(Nc3ccc(OCCN4CCOCC4)cc3)ncc2F)c1 [Compound R926699]
Second: Oc1cccc(Nc2ncc(F)c(Nc3ccc(OCCN4CCOCC4)cc3)n2)c1 [Compound R926710]
The IC50 of the first is 2.3-fold lower: 1.86 µM for the first, 4.27 µM for the second.

`CC1(C)COC(COc2ccc(Nc3ncc(F)c(Nc4cccc(O)c4)n3)cc2)=N1` [Compound R926702] and `CC(C)Oc1ccc(Nc2nc(Nc3cccc(OCC(=O)O)c3)ncc2F)cc1` [Compound R926731] cannot be ordered by IC50: 18.6 µM for the first, > 10 µM for the second.

Compared with `CC(C)Oc1ccc(Nc2nc(Nc3ccc4oc(C(=O)N5CCCC5)cc4c3)ncc2F)cc1` [Compound R926703], `O=C(c1cc2cc(Nc3ncc(F)c(Nc4ccc5c(c4)OCCO5)n3)ccc2o1)N1CCCNCC1` [Compound R926767] is 2.9-fold lower in IC50: 7.87 µM for the first, 2.67 µM for the second.

First: CNC(=O)COc1ccc(Nc2ncc(F)c(Nc3ccc4c(c3)OCCO4)n2)cc1 [Compound R926708]
Second: CNC(=O)COc1cccc(Nc2nc(Nc3ccc4c(c3)OCCO4)ncc2F)c1 [Compound R926776]
The IC50 of the first is 3.8-fold lower: 3.3 µM for the first, 12.5 µM for the second.

Going from `Fc1cnc(Nc2ccc(OCCN3CCOCC3)cc2)nc1Nc1ccc2c(c1)OCCO2` [Compound R926709] to `Fc1cnc(Nc2ccc3c(c2)OCCO3)nc1Nc1ccc(OCCN2CCOCC2)cc1` [Compound R926711], the IC50 rises from 2.47 µM to 3.79 µM (1.5-fold).

`CNC(=O)COc1ccc(Nc2ncc(F)c(Nc3ccc(C(C)(C)C)cc3)n2)cc1` [Compound R926712] and `CNC(=O)COc1cccc(Nc2ncc(F)c(Nc3ccc(C(C)(C)C)cc3)n2)c1` [Compound R926714] are within 1.5-fold of each other in IC50: 6.35 µM for the first, 5.63 µM for the second.

`CN(CCO)C(=O)c1cc2cc(Nc3ncc(F)c(Nc4cccc(O)c4)n3)ccc2o1` [Compound R926725] and `Oc1cccc(Nc2nc(Nc3ccc4oc(CN5CCNCC5)cc4c3)ncc2F)c1` [Compound R926769] are within 1.5-fold of each other in IC50: 3.37 µM for the first, 2.79 µM for the second.

`CC(C)(C)c1ccc(Nc2nc(Nc3cccc(OCC(=O)O)c3)ncc2F)cc1` [Compound R926726] and `CC(C)(C)c1ccc(Nc2nc(Nc3cccc(OCCO)c3)ncc2F)cc1` [Compound R926728] cannot be ordered by IC50: > 10 µM for the first, > 10 µM for the second.

`CCOC(=O)CSc1ccc(Nc2ncc(F)c(Nc3ccc4c(c3)OCCO4)n2)cn1` [Compound R926727] and `CCOC(=O)COc1ccc(Nc2ncc(F)c(Nc3ccc4c(c3)OCCO4)n2)cn1` [Compound R926740] cannot be ordered by IC50: > 10 µM for the first, > 10 µM for the second.

`CNC(=O)COc1cccc(Nc2ncc(F)c(Nc3ccc(OC(C)C)cc3)n2)c1` [Compound R926730] and `CNC(=O)COc1cccc(Nc2ncc(F)c(Nc3cccc(OC)c3)n2)c1` [Compound R926738] are within 1.5-fold of each other in IC50: 1.84 µM for the first, 2.22 µM for the second.

Compared with `CNC(=O)COc1cccc(Nc2ncc(F)c(Nc3ccc4c(c3)OC(F)(F)C(F)(F)O4)n2)c1` [Compound R926732], `CNC(=O)COc1cccc(Nc2ncc(F)c(Nc3ccc(C)c(O)c3)n2)c1` [Compound R926753] is 13-fold lower in IC50: 5.26 µM for the first, 0.393 µM for the second.

Going from `CNC(=O)COc1cccc(Nc2ncc(F)c(Nc3ccc(OC)c(OC)c3)n2)c1` [Compound R926733] to `COc1ccc(Nc2nc(Nc3cccc(OCC(=O)NCC(O)CO)c3)ncc2F)cc1OC` (stereo not drawn) [Compound R926734], the IC50 rises from 3.59 µM to 11.3 µM (3.1-fold).

Compared with `OCCOc1cccc(Nc2ncc(CO)c(Nc3cccc(O)c3)n2)c1` [Compound R926735], `O=C(COc1cccc(Nc2ncc(F)c(Nc3cccc(O)c3)n2)c1)NCC(O)CO` (stereo not drawn) [Compound R926746] is 1.6-fold lower in IC50: 5.98 µM for the first, 3.7 µM for the second. The second is the more potent here.

First: COc1cccc(Nc2nc(Nc3cccc(OCC(=O)NCC(O)CO)c3)ncc2F)c1 (stereo not drawn) [Compound R926739]
Second: CNC(=O)COc1cccc(Nc2ncc(F)c(Nc3cccc(B(O)O)c3)n2)c1 [Compound R926754]
The IC50 of the first is 6.3-fold lower: 2.09 µM for the first, 13.2 µM for the second.

First: CNC(=O)COc1cccc(Nc2nc(Nc3cccc(O)c3)ncc2C(F)(F)F)c1 [Compound R926741]
Second: CNC(=O)COc1cc(Nc2ncc(F)c(Nc3cccc(O)c3)n2)ccc1C [Compound R926757]
The IC50 of the first is 1.7-fold higher: 4.59 µM for the first, 2.74 µM for the second. The second is the more potent here.

Going from `NC(=O)COc1cccc(Nc2ncc(F)c(Nc3ccc4c(c3)OCCO4)n2)c1` [Compound R926747] to `CCOC(=O)COc1cccc(Nc2nc(Nc3ccc4c(c3)OCCO4)ncc2F)c1` [Compound R926774], the IC50 rises from 3.28 µM to 12.7 µM (3.9-fold).

`CNC(=O)COc1cc(Nc2ncc(F)c(Nc3ccc4cc[nH]c4c3)n2)ccc1OC` [Compound R926752] and `CNC(=O)COc1cc(Nc2ncc(F)c(Nc3ccc(C)c(O)c3)n2)ccc1C` [Compound R926759] are within 1.5-fold of each other in IC50: 1.73 µM for the first, 1.71 µM for the second.

Going from `CC(C)(CO)NC(=O)COc1cccc(Nc2ncc(F)c(Nc3ccc4c(c3)OCCO4)n2)c1` [Compound R926764] to `CN(CCO)C(=O)COc1cccc(Nc2ncc(F)c(Nc3ccc4c(c3)OCCO4)n2)c1` [Compound R926766], the IC50 rises from 2.17 µM to 4.24 µM (2-fold).

Going from `O=C(COc1cccc(Nc2ncc(F)c(Nc3ccc4c(c3)OCCO4)n2)c1)NC1CCCCC1` [Compound R926765] to `O=C(c1cc2cc(Nc3ncc(F)c(Nc4ccc5c(c4)OCCO5)n3)ccc2o1)N1CCCNCC1` [Compound R926768], the IC50 falls from 8 µM to 0.973 µM (8.2-fold).

Going from `Oc1cccc(Nc2nc(Nc3ccc4oc(CN5CCNCC5)cc4c3)ncc2F)c1` [Compound R926770] to `O=C(COc1cccc(Nc2ncc(F)c(Nc3cccc(O)c3)n2)c1)N1CCNCC1` [Compound R926772], the IC50 rises from 0.891 µM to 2.04 µM (2.3-fold).

`O=C(COc1cccc(Nc2ncc(F)c(Nc3cccc(O)c3)n2)c1)N1CCNCC1` [Compound R926773] gave an IC50 of 1.84 µM.

same assay, conditions: Homo sapiens, Jurkat

`CCOC(=O)c1cc2cc(Nc3ncc(F)c(Nc4cccc(O)c4)n3)ccc2[nH]1` [Compound R926615] and `CCOC(=O)c1cc2cc(Nc3ncc(F)c(Nc4ccc5[nH]c(C(=O)OCC)cc5c4)n3)ccc2[nH]1` [Compound R926616] are within 1.5-fold of each other in IC50: 1.87 µM for the first, 1.91 µM for the second.

Going from `O=c1ccc2cc(Nc3ncc(F)c(Nc4ccc5oc(=O)ccc5c4)n3)ccc2o1` [Compound R926617] to `OCc1cc2cc(Nc3ncc(F)c(Nc4cccc(O)c4)n3)ccc2o1` [Compound R926707], the IC50 falls from > 10 µM to 2.68 µM.

`Cc1cc(Nc2ncc(F)c(Nc3cc(C)c(O)cc3C)n2)c(C)cc1O` [Compound R926623] and `Oc1ccc(Nc2ncc(F)c(Nc3ccc(O)cc3F)n2)c(F)c1` [Compound R926683] are within 1.5-fold of each other in IC50: 10 µM for the first, 7.63 µM for the second.

`CCOC(=O)Cc1ccc(Nc2ncc(C#N)c(Nc3ccc(CC(=O)OCC)cc3)n2)cc1` [Compound R926662] and `CC(C)Oc1ccc(Nc2ncc(F)c(Nc3ccc(OC(C)C)cc3)n2)cc1` [Compound R926701] cannot be ordered by IC50: > 10 µM for the first, > 10 µM for the second.

`Oc1ccc(Nc2ncc(F)c(Nc3ccc(O)c(Cl)c3)n2)cc1Cl` [Compound R926675] and `Oc1ccc(Nc2ncc(F)c(Nc3ccc(O)c(F)c3)n2)cc1F` [Compound R926681] are within 1.5-fold of each other in IC50: 2.37 µM for the first, 2 µM for the second.

`CC(=O)Nc1cccc(Nc2ncc(F)c(Nc3cccc(NC(C)=O)c3)n2)c1` [Compound R926682] and `OB(O)c1cccc(Nc2nc(Nc3cccc(O)c3)ncc2F)c1` [Compound R926755] are within 1.5-fold of each other in IC50: 5.95 µM for the first, 7.36 µM for the second.

Going from `COc1cc(Nc2ncc(F)c(Nc3cc(OC)c(OC)c(OC)c3)n2)cc(OC)c1OC` [Compound R926688] to `COc1cc(Nc2ncc(F)c(Nc3cccc(O)c3)n2)cc(OC)c1OC` [Compound R926761], the IC50 falls from 3.78 µM to 0.694 µM (5.4-fold). The second is the more potent here.

`COC(=O)c1cc2cc(Nc3ncc(F)c(Nc4ccc5c(c4)OCCO5)n3)ccc2o1` [Compound R926690] and `O=C(O)c1cc2cc(Nc3ncc(F)c(Nc4ccc5c(c4)OCCO5)n3)ccc2o1` [Compound R926698] cannot be ordered by IC50: 13.4 µM for the first, > 10 µM for the second.

Going from `O=S(=O)(c1ccc(Nc2ncc(F)c(Nc3ccc4c(c3)OCCO4)n2)cc1)N1CCCC1` [Compound R926716] to `Fc1cnc(Nc2ccc3cc[nH]c3c2)nc1Nc1ccc2c(c1)OCCO2` [Compound R926750], the IC50 falls from 3.62 µM to 0.535 µM (6.8-fold). The second is the more potent here.

`Fc1cnc(NCCCN2CCN(Cc3c(F)cccc3Cl)CC2)nc1Nc1ccc2c(c1)OCCO2` [Compound R926717] and `Fc1cnc(Nc2ccc3c(c2)OCCO3)nc1NCc1csc2ccc(Cl)cc12` [Compound R926721] are within 1.5-fold of each other in IC50: 3.75 µM for the first, 3.46 µM for the second.

`COC(=O)C1Cc2cc(N(c3ccc(C(C)(C)C)cc3)c3ncc(F)c(N)n3)ccc2O1` (stereo not drawn) [Compound R926719] and `CC(C)(C)c1ccc(Nc2nc(Nc3ccc4c(c3)CC(C(=O)O)O4)ncc2F)cc1` (stereo not drawn) [Compound R926720] cannot be ordered by IC50: > 10 µM for the first, > 10 µM for the second.

`Oc1cccc(Nc2ncc(F)c(NCc3csc4ccc(Cl)cc34)n2)c1` [Compound R926722] and `Oc1cccc(Nc2ncc(F)c(NCCSCc3c(F)cccc3Cl)n2)c1` [Compound R926724] cannot be ordered by IC50: > 10 µM for the first, > 10 µM for the second.

`Cc1onc(-c2ccccc2)c1Nc1ncc(F)c(Nc2ccc3c(c2)OCCO3)n1` [Compound R926743] and `Cc1noc(C)c1Nc1ncc(F)c(Nc2ccc3c(c2)OCCO3)n1` [Compound R926744] cannot be ordered by IC50: > 10 µM for the first, > 10 µM for the second.

`Fc1cnc(Nc2ccc3[nH]ccc3c2)nc1Nc1ccc2c(c1)OCCO2` [Compound R926748] and `CN(C)CCOc1cccc(Nc2ncc(F)c(Nc3ccc4c(c3)OCCO4)n2)c1` [Compound R926771] are within 1.5-fold of each other in IC50: 2.77 µM for the first, 3.47 µM for the second.

Compared with `Oc1cccc(Nc2nc(Nc3ccc4cc[nH]c4c3)ncc2F)c1` [Compound R926751], `Oc1cccc(Nc2nc(Nc3ccc(-n4cnc(Cl)c4Cl)cc3)ncc2F)c1` [Compound R926777] is higher in IC50: 5.59 µM for the first, > 10 µM for the second. The first is the more potent here.

For `COc1cc(Nc2ncc(F)c(Nc3ccc4c(c3)OCCO4)n2)cc(OC)c1OC` [Compound R926762], the IC50 was 0.703 µM.
